Data on 13 substances can be found in patent US20100216191A1, “Method for Manufacturing a Modified Peptide” (PROCOMCURE BIOTECH GMBH, priority 2007, published 2010).

One assay has as its system GST-tagged FnbB. In words: Pull-down with GST-tagged FnbB, proteins from rabbit reticulocyte translation system. It is filed as binding, S. aureus. To be noted: cell-free protein translation system; GST alone as negative control.
The target of assay [1] is T1, His-tagged ClfB protein (Staphylococcus aureus, UniProt Q99R07). To be noted: 5 μg spotted onto membrane, His-tag antibody detection. On the procedure: 7.1. […] This peptide was also synthesized.
T1 sequence (Q99R07 45-841): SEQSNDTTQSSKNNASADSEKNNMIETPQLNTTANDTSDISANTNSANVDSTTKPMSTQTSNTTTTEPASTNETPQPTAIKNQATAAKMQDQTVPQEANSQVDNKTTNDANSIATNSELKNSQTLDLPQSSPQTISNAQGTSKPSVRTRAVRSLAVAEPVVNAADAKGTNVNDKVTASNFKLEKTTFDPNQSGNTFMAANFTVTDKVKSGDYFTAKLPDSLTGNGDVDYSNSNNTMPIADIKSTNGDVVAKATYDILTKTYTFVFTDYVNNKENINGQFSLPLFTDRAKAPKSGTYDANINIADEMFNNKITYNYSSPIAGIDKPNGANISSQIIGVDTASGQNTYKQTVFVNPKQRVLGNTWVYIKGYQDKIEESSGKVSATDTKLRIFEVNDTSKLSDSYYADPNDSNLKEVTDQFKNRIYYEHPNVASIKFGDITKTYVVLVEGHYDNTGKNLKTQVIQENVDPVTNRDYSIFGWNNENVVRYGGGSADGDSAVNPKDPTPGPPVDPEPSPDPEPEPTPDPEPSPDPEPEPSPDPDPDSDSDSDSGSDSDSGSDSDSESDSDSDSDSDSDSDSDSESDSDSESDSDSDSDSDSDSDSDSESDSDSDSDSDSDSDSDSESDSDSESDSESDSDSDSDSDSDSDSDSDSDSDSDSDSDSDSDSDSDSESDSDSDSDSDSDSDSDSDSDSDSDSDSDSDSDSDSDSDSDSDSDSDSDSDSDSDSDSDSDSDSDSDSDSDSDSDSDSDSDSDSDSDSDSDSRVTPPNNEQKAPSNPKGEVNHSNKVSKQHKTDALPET
Peptides were spotted onto a protein binding membrane and incubated with recombinant His-tagged ClfB protein. The irreversibly bound peptides can be targeted by additionally added ClfB. Bound ClfB protein is detected by a His-tag specific antibody (see FIG. 7).

Assay [2] has as its target T2, ClfB (Staphylococcus aureus, UniProt Q99R07). To be noted: Y2H-strain AH109, prey plasmid pGADT7.
Description: All constituents of this mini-library are tested directly in a binary manner against ClfB. • The identified interactions between ClfB and KRT6A, KRT8, and KRT5 (cf Table 1) were used for the experiment. • The interacting KRT-genes were compared in order to identify the plasmid harbouring the shortest KRT gene-fragment from the initial Y2H-screen. […] The clone with the smallest ClfB interacting DNA-insert is called clone clb10.1 • Clone clb10.1 was used as template for primer-design. PCR-primers were designed to lead to N-terminal truncations of the resulting protein. The clb10.1 DNA-template contains a 330 base pair DNA-fragment of the gene coding region of KRT8 (corresponds to a peptide of 110 amino acids). • The first primer-pair binds 45 bp downstream of the clb10.1 DNA-template resulting in a 45 by shortened DNA-fragment after PCR (the generated PCR-product contains a gene coding sequence of 285 bp). The resulting peptide encoded from this DNA is 95 amino acids. The PCR-product was cloned into an empty Y2H-prey plasmid, pGADT7. The plasmid was sequenced and the clone was named Frag1. • The second primer pair amplifies a PCR-product, which contains a gene coding sequence of 144 bp, which corresponds to a peptide of 48 amino acids. The PCR-product was cloned into an empty Y2H-prey plasmid, pGADT7. The plasmid was sequenced and the clone was named Frag2. • The third primer pair still amplifies the same gene coding sequence of KRT8, however the 3-primed untranslated region was removed. The 3-primed untranslated region is 241 bp long and not relevant for the interaction with ClfB protein. The removal of this 241 region was achieved by using a PCR-reverse primer, which binds upstream of this region in the DNA-template of clone 10.1. The resulting peptide, when translated from this PCR-product is still 48 amino acids. The PCR-product was cloned into an empty Y2H-prey plasmid, pGADT7. The plasmid was sequenced and the clone was named Frag2-CDS. • The fourth primer pair amplifies a PCR-product of 84 bp, which when translated into a protein will correspond to a peptide of 28 amino acids. The PCR-product was cloned into an empty Y2H-prey plasmid, pGADT7. The plasmid was sequenced and the clone was named Frag2-binding domain. • The fifth primer pair amplifies a PCR-product of 78 bp; when translated into a protein this fragment will correspond to a peptide of 26 amino acids. The PCR-product was cloned into an empty Y2H-prey plasmid, pGADT7. The plasmid was sequenced and the clone was named Frag3. • After PCR, the fragments were separated by gel-electrophoresis and the DNA was extracted from the gels by a commercial gel-extraction kit. The DNA was cut by restriction enzymes and cloned into the Y2H-plasmid pGADT7. The cloning reaction was introduced by plasmid transformation into E. coli. The transformation mixture was plated out onto plasmid-selective media containing the appropriate antibiotic. Growing colonies were inoculated into liquid media containing the same antibiotic, and the E. coli liquid culture was plasmid-purified and sequenced for confirmation. • Pure plasmid DNA from all constructs (Frag1, Frag2, Frag2-CDS, Frag2-binding domain, Frag3, clb10.1 clone, as well as full-length KRT6A, full-length KRT8, and full-length KRT5) were mixed to obtain a mini-library of different shortened fragments from the same interactor of ClfB.
Assay [3] addresses T2, ClfB. The assay is classed as cell-based, S. aureus. To be noted: among 100 clones after two rounds of selection against ClfB. Details: expressed in transfected cells; host or cells: yeast Y2H reporter strain AH109.
For assay [4], the target named is binding of GST-tagged keratin fragment to ClfB-protein (Staphylococcus aureus, UniProt Q99R07). To be noted: 1 μM peptide; densitometry, ImageJ. The source says: 7.2. […] Relative changes in pulled-down GST-tagged keratin fragment is quantified by densitometry using a flatbed scanner and the ImageJ software, provided by Wayne Rasband, National Institutes of Health. (ImageJ: http://rsb.info.nih.gov/ij/) See FIGS. 8 and 9
Chain of binding of GST-tagged keratin fragment to ClfB-protein (Q99R07 45-841): as above

In a further assay the test system is living S. aureus cells. Description: Adhesion assay with living S. aureus cells, crystal violet, absorbance at 595 nm. To be noted: 1 μg coated onto microwell-plates. The assay is classed as cell-based. Here is the method:
• All genes coding for the used recombinant proteins were cloned into the plasmid pDEST15. […] This protein served as negative control 1 • Affinity purified, recombinantly in E. coli produced GST-tagged Frag2-CDS (49 ng/μl). the amino acid sequence of Frag2-CDS is N-[…]-C (SEQ ID NO: 71) • Affinity purified, recombinantly in E. coli produced GST-tagged S. aureus protein, methionine sulfoxide reductase msrB, NCBI protein GI:54041496, was diluted to a final concentration of 30 ng/μl. This protein served as negative control 2 • Affinity purified, recombinantly in E. coli produced GST-tagged S. aureus protein, NADPH-dependent 7-cyano-7-deazaguanine reductase, NCBI protein GI:81781951, was diluted to a final concentration of 61 ng/μl. This protein served as negative control 3 • Human aortic elastin protein, 1 mg elastin was purchased from the company Elastin Products company, product number HA587 and solubilized in 1 ml H2O to get the final concentration of 1 μg/μl. This protein served as positive control 1 because elastin protein is known to bind to S. aureus. • Human fibrinogen protein was purchased from the company Enzyme Research Laboratories, product number FIB 1 3120L; […] was solubilized in 50 ml H2O to get the final concentration of 2 μg/μl. […]

Assay [5] addresses T3, activation domain of yeast protein GAL4 (Saccharomyces cerevisiae, UniProt P04386).
T3 construct: expressed in transfected cells; host or cells: yeast Y2H reporter strain AH109
In words: Y2H specificity test against activation domain of GAL4. The assay is classed as cell-based. To be noted: Y2H-strain AH109.

Assay [6] addresses T4, binding domain of yeast protein GAL4 (Saccharomyces cerevisiae, UniProt P04386).
T4 construct: expressed in transfected cells; host or cells: yeast Y2H reporter strain AH109
In words: Y2H specificity test against binding domain of GAL4. It is filed as cell-based. To be noted: Y2H-strain AH109.

Assay [7] addresses T5, Frag2-binding domain peptide (Homo sapiens, UniProt P05787).
T5 construct: expressed in transfected cells; host or cells: yeast Y2H reporter strain AH109
T5 sequence (P05787 437-464 limits assumed): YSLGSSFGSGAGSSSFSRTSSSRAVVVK
In words: Y2H test of peptide binding to the same peptide (homodimerization, stickiness). To be noted: Y2H-strain AH109. It is filed as cell-based.

The target of assay [8] is T1, His-tagged ClfB protein. To be noted: detection with anti-GST antibodies; listed as GST-tagged Keratin 8 protein fragment. The source says:
(§1) 6.2.1. Recombinant Protein Production • The DNA-sequence coding for ClfB was cloned into a plasmid PET160 (a plasmid suitable for recombinant protein expression in E. coli and HIS-tag purification). The plasmid harbours a so-called HIS-tag, which is a DNA sequence coding for a stretch of six histidine residues. […]
(§2) 6.2.2. […] The GST-tagged peptide was purified by using a commercial GST-tag purification kit. • After several washing steps the remaining proteins are eluted from the magnetic beads • The eluted protein/peptide mixture is loaded on a SDS-page gel, separated, transferred onto a membrane, and probed with GST-tag specific antibodies and bound antibodies are detected by chemiluminescence signals on chemiluminescence films. • The following combinations of recombinant proteins/peptides were used in the pull-downs: • a) BSA+GST-tagged 48-aminoacid long peptide • b) His-tagged ClfB+GST-tagged 48-amino acid-peptide • c) Purified GST+GST-tagged 48-amino acid-peptide

A further assay deals with BSA (Bos taurus, UniProt P02769). In words: In vitro pull-down with BSA coated beads. To be noted: detection with anti-GST antibodies; listed as GST-tagged peptide of 48-amino acids. The assay is classed as binding.
Description: as §1, §2

The target of a further assay is T6, GST (Schistosoma japonicum, UniProt P08515).
T6 construct: purchased
T6 sequence (P08515 whole entry): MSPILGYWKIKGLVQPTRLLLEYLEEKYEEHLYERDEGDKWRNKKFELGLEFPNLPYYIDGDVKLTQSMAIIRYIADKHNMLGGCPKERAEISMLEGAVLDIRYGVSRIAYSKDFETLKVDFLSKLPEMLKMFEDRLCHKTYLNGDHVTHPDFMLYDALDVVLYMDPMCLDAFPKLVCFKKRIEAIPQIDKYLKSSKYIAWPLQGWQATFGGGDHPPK
In words: In vitro pull-down with GST coated beads. It is filed as binding. To be noted: detection with anti-GST antibodies; listed as GST-tagged peptide of 48-amino acids.
Description: as §1, §2

Assay [9] concerns the target T2, ClfB. To be noted: for Relative interaction strength to ClfB compared to the original binder: X-Gal overlay assays and growth strength on 3AT media, AH109 cells; for More beta galactosidase in comparison to the original binder: X-Gal overlay, equal numbers of cells.

“Also recorded” adds a separate entry of the source. Read-outs that look alike come from different tables or passages of the source. Where no end group is shown, it is not given here.

T2 sequence (Q99R07 45-841): as the sequence (Q99R07 45-841) above
T3 sequence (P04386 768-881): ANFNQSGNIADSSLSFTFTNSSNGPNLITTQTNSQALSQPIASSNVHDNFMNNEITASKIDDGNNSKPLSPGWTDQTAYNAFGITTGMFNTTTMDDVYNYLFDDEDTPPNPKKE
T4 sequence (P04386 11-38): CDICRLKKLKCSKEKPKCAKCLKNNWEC
Description for GST-tagged FnbB: Recombinant proteins were produced from the isolated plasmids from the PPI-partners in a rabbit reticulocyte-based translation system and additionally in E. coli cells. The produced recombinant proteins were used for pull-down and immunoprecipitation experiments.

As for “CCT—beta: human protein interacting with FnbB, NCBI Protein GI 2559012”, in the assay on GST-tagged FnbB, the “Co-purified with GST-tagged FnbB” value was “could be co-purified”.

In the case of “EQRGELAIKDANAKLSELEAAL [control peptide, reference compound]”, on His-tagged ClfB protein [1], the “Binding of recombinant ClfB to spotted peptide” value (from here on “Binding of recombinant ClfB”) is reported as “no binding was detected”.

On to “QELMNVKLALDIEIATYRKLLEGEESRLESGMQNMSIHTKTTSGYAGGLSSAYGGLTSPGLSYSLGSSFGSGAGSSSFSRTSSSRAVVVKKIETRDGKLVSESSDVLPK [Clone 10.1]”, for which, on ClfB [2], the “Interaction capable with ClfB in the Y2H-system” value (from here on “Interaction capable with ClfB”) is “Yes”. For the same substance, the “Identified X-times by sequencing” value at ClfB [3] is reported as 8.

In the case of RAVVVKKIETRDGKLVSESSDVLPK [Frag 3], the “Interaction capable with ClfB” value at ClfB [2] is “No”. Moreover, the entries for the “Identified X-times by sequencing” value at ClfB [3] and on ClfB [3] (listed as Frag3) were 0 and “No single clone”, respectively.

Consider SYSLGSSFGSGAGSSSFSRTS [IPEP-21SA], for which, in the assay with His-tagged ClfB protein [1], the “Binding of recombinant ClfB” value was “could bind”. The “Competitive inhibition of binding of GST-tagged keratin fragment to ClfB-protein” value in assay [4] is given as about 40%. In the assay on living S. aureus cells, the “Binding to living pathogen cells” value is on record as “binds strongly”.

Consider “TYRKLLEGEESRLESGMQNMSIHTKTTSGYAGGLSSAYGGLTSPGLSYSLGSSFGSGAGSSSFSRTSSSRAVVVKKIETRDGKLVSESSDVLPK [Frag 1]”, for which, at ClfB [2], the “Interaction capable with ClfB” value is recorded as “Yes”. In addition, at ClfB [3], the “Identified X-times by sequencing” value was found to be 12.

With “YSLGSSFGSGAGSSSFSRTSSSRAVVVK [Frag 2-binding domain]”, in assay [5], the “Interaction with the activation domain of GAL4 protein” value is “neither interacts”. In [6], the “Interaction with the binding-domain of GAL4 protein” value is reported as “neither interacts”. Besides, in [7], the “Interaction of the peptide with itself” value is on record as “does not interact with itself”. The “Interaction capable with ClfB” value in the assay with ClfB [2] is reported as “Yes”; with ClfB [2] (listed as Frag2-binding domain) it was “still capable of interaction; also recorded: does only interact with ClfB protein”. For the same substance, the “Identified X-times by sequencing” value with ClfB [3] turned out to be 18.

“YSLGSSFGSGAGSSSFSRTSSSRAVVVKKIETRDGKLVSESSDVLPK (also: fused to a dimerising Fc or GST (not shown)) [GST-tagged Frag2-CDS, Frag2-CDS peptide recombinantly produced in E. coli with N-terminally fused glutathione S-transferase]”: the “Pulled down (co-purified) with His-tagged ClfB protein” value in the assay with His-tagged ClfB protein [8] is “could only be pulled down when His-tagged recombinant ClfB was present”. In the assay with BSA, the “Pulled down by BSA coated beads” value is “Neither BSA coated- nor GST coated magnetic beads could pull down; also recorded: neither a) BSA nor c) GST coated beads can pull-down”. In addition, the “Pulled down by GST coated beads” value with GST is “Neither BSA coated- nor GST coated magnetic beads could pull down; also recorded: neither a) BSA nor c) GST coated beads can pull-down”. Besides, the “Binding of recombinant ClfB” value with His-tagged ClfB protein [1] was “could bind”. In addition, the “Binding to living pathogen cells” value with living S. aureus cells is on record as “binds strongly”.

As to “YSLGSSFGSGAGSSSFSRTSSSRAVVVKKIETRDGKLVSESSDVLPK [Frag 2-CDS]”, the “Interaction capable with ClfB” value on ClfB [2] was “Yes”. Besides, the “Identified X-times by sequencing” value at ClfB [3] and at ClfB [3] (listed as Frag2-CDS) was 28 each time.

Take “YSLGSSFGSGAGSSSFSRTSSSRAVVVKKIETRDGKLVSESSDVLPK [Frag 2]”: the “Interaction capable with ClfB” value at ClfB [2] was “Yes”. The “Identified X-times by sequencing” value on ClfB [3] is listed as 25.

Take “YSLGSSFGSGAGSSSLGRTSSSRAVVVK [stronger binder]”: at ClfB [9], the “Relative interaction strength to ClfB compared to the original binder” value was “binds with increased affinity” and the “More beta galactosidase in comparison to the original binder” value was “at least 50%”.

For “YSLGSSFGSGAGSSSSSRTSPSRAVVVK [more stronger binder]”, on ClfB [9], the “Relative interaction strength to ClfB compared to the original binder” value is “binds with increased strength” and the “More beta galactosidase in comparison to the original binder” value was at least 100%.

For “lysosomal sialidase NEU 1: human protein interacting with FnbB, NCBI Protein GI 30583251”, the “Co-purified with GST-tagged FnbB” value with GST-tagged FnbB is on record as “could be co-purified”.
